# Patent US20210386813A1, “COMPOSITION FOR TREATING OVERWEIGHT AND/OR OBESITY” (NEXIRA, priority 2018, published 2021)
# Marks after values point to notes of the source that are not given here.
# Assays:
# [1] = tested on: adipocytes; test: Lipolysis study of mature adipocytes (glycerol and NEFA release); format: cell-based; settings: human adipocytes, 2 h at 37° C.; forskolin 1 μM, isoproterenol 0.1 μM; 100 = Base control
# Protocol: The quantification of the production of glycerol is performed by means of the Glycerol Assay Kit test kit available from Randox under the reference GY105.
# The quantification of the production of non-esterified fatty acids is performed by the NEFA HR2—RI Set, NEFA HR2—R2 Set and NEFA Standard test kits available from Fujifilm Wako Chemicals Europe under the respective references 434-91795, 436-91995 and 270-77000.
# Each of these kits is based on the production of a colored compound. Thus, the respective concentrations of glycerol and non-esterified fatty acids are determined by means of optical absorbance measurements, and the comparison of these measurements with known absorbance ranges for glycerol and non-esterified fatty acid concentrations. The values are normalized by DNA quantification by means of the Quant-iT® PicoGreen® (Invitrogen®) kit available from ThermoFisher Scientific under the reference P7589.
# Adipocytes coming from humans are used for the lipolysis study.
# The adipocytes are prepared from subcutaneous adipose tissue digested by collagenase followed by a low centrifugation.
# The adipocytes are incubated in a Krebs-Ringer bicarbonate (KRB) buffer solution, sometimes containing basolateral medium of caco-2 cells exposed with, either predetermined concentrations of extract(s) (at a rate of one 1:8 dilution each), or with reference products. The incubation time is 2 h at a temperature of 37° C. The cell culture medium is subsequently harvested and frozen at a temperature of −20° C. for use in the glycerol and NEFA tests. The adipocytes are also harvested for the DNA quantification.
# Forskolin (1 μM, available from Sigma-Aldrich under the reference F6886) and isoproterenol (0.1 μM, available from Sigma-Aldrich under the reference 16504) are used as lipolysis activators.
# The results are expressed in percentages in relation to the results obtained for respective BM media without extracts. The statistical analyses are performed by placing the BM environments comprising the extracts in relation with the respective BM environments without extracts.
# [2] = tested on: preadipocytes; test: Preadipocyte differentiation and lipid accumulation (adipogenesis) study, BODIPY fluorescence; format: cell-based; settings: human preadipocytes; GW9662 0.1 μM; relative to differentiated cells
# Protocol: In practice, the effects of the bioavailable extracts on the lipid accumulation are studied by measuring the accumulation of lipid droplets in the differentiated preadipocytes, that is to say in the adipocytes. The measurement is optical and is performed by fluorescence.
# Preadipocytes coming from humans are used for the lipid accumulation study.
# The three adipose tissue donors are adult females undergoing a cosmetic or reconstructive surgery intervention.
# The preadipocytes are isolated by digestion and centrifugation in accordance with the protocol described for the cytotoxicity study (I) above. […]
# The quantification is based on fluorescence intensity measurements on images. The acquisition and the processing of images includes particularly: • the acquisition of microphotographs with a video microscope using the so-called Apotome technology (7 micrographs per well, 3 wells per processing condition); • the quantification of the lipid accumulation by the treatment and the image analysis of the ImageJ software developed by National Institutes of Health (NIH); • the determination of the number of nuclei by means of a shape detection and shape sorting algorithm based on the nucleus size and the circularity of the nucleus; • the connection between the fluorescence detected and the number of nuclei. […]
# Fluorescence microphotographs are performed to quantify the lipid accumulation (Bodipy®). […]
# [3] = tested on: UCP1; test: Adipose tissue phenotypic orientation (thermogenesis) study, UCP1 expression by immunofluorescence; format: cell-based; settings: human preadipocytes; GW9662; relative to differentiated cells
# Excerpt: The Applicant evaluated the effects of a multitude of bioavailable plant extracts, as well as the effects of the combination of these extracts, on the differentiation of preadipocytes or adipocytes into beige adipocytes. More generally the Applicant evaluated the orientation of a white phenotype towards a beige phenotype.
# Preadipocytes coming from humans are used for the cellular differentiation study. The three donors are those of the cytotoxicity study (I) above.
# (§1) The preadipocytes are isolated by digestion and centrifugation in accordance with the protocol described for the cytotoxicity study (I) above. The preadipocytes are spread at high density on microtiter plate 96 and cultivated according to the protocol described for the lipid accumulation study (II). The placing in contact with the basolateral medium is performed according to the protocol described for the lipid accumulation study (II).
# After the culture, the differentiated cells are fixed with a 4% paraformaldehyde solution then colored with an anti-UCP1 fluorescent antibody available from Sigma-Aldrich under the reference U6382. […]
# The quantification is based on fluorescence intensity measurements on images. […]
# Fluorescence microphotographs are performed to quantify the UCP1 expression. […]
# [4] = tested on: differentiated preadipocytes; test: Adipose tissue energy metabolism study, ATP production (Mitochondrial ToxGlo); format: cell-based, human; settings: differentiated cells; rotenone 400 nM, 2 hours
# Protocol: In order to study the energy metabolism, the ATP production is measured in the differentiated preadipocytes. This provides information on the presence of mitochondria and their activity. Here, the Mitochondrial ToxGlo® test available from Promega under the reference G8000 is used.
# The test includes placing preadipocytes in contact with an ATP detection reagent. […] The ATP detection reagent comprises luciferin, ATPase inhibitors and Ultra-Glo® thermostable luciferase. The values are normalized with a DAPI quantification. The Normalization is carried out exclusively in relation to the basolateral medium.
# Preadipocytes coming from humans are used for the energy metabolism study. The three donors are those of the cytotoxicity study (I) above.
# as §1
# The quantification of the ATP synthesis is performed on differentiated cells.
# The basolateral medium (BM) comprising the bioavailable extracts of the Caco-2 cell system is harvested for the test. […]
# [5] = tested on: preadipocytes; test: Cytotoxicity study of bioavailable plant extracts on human preadipocytes (LDH release, CytoTox 96); format: cell-based; settings: relative to FBS 1% base control, 0.2% triton
# Protocol: The analysis of the damage of cell membranes is performed with the CytoTox 96® Non-Radioactive Cytotoxicity Assay kit available from Promega under the reference G1780. This test is based on the principle that cells having a damaged cell membrane release […] (LDH) into the culture medium. LDH is measured by supplying in the medium lactate, oxidized nicotinamide adenine dinucleotide (NAD+) and iodonitrotetrazolium purple as substrates in presence of diaphorase. Red formazan is then created. The red formazan is proportional to the LDH released by the cells. The Applicant evaluated the cytotoxic effects of a multitude of bioavailable plant extracts, as well as the cytotoxic effects of the combination of these extracts, on preadipocytes coming from various donors. The cytotoxic effects of bioavailable plant extracts and their combinations was evaluated on preadipocytes. […] An extract is considered as cytotoxic if the LDH level measured is greater than or equal to 20% in relation to the LDH level measured with the control extract. […] The results are expressed in percentages in relation to the control extract; except for the LDH test, for which the results are expressed as percentages of the cell lysis control (average+/− SEM), which represents the positive control for the cytotoxicity (the control is fixed at 100%). […]
# [6] = tested on: preadipocytes; test: Cellular viability / mitochondrial activity (MTS formazan, Cell Titer 96 AQueous One); format: cell-based; settings: human preadipocytes; relative to FBS 1% base control; 0.2% triton
# Protocol: The cytotoxic effects of bioavailable plant extracts and their combinations was evaluated on preadipocytes. Two technical approaches were implemented: • the evaluation of the cellular viability by the measurement of the production of formazan by active (therefore living) cells; and • the analysis of the damage of cell membranes by the measurement of lactate dehydrogenase (LDH) in the cell culture medium.
# The evaluation of the cellular viability is performed with the Cell Titer 96® AQueous One Solution Cell Proliferation Assay test kit available from Promega under the reference G3580.
# In this test, the compound MTS-tetrazolium (3-(4,5-dimethylthiazol-2-yl)-5-(3-carboxymethoxyphenyl)-2-(4-sulfophenyl)-2H-tetrazolium) is transformed by active (living) cells in a culture medium in colored formazan. The transformation of MTS-tetrazolium is performed by the mitochondria in the cells. Formazan is soluble in the culture medium. The quantity of formazan is directly proportional to the number of living cells and may be measured by spectrophotometry (absorbance).
# In practice, the cellular viability test is therefore based on the mitochondrial activity of the cells.
# As a result, the viability study may provide precious information for the energy metabolism study (IV). […]
# The cellular viability is measured directly in the wells of the microtiter plate. […]
molecule,measurement,setting,value
C=C[C@@]1(C)CC(=O)[C@]2(O)[C@@]3(C)[C@@H](O)CCC(C)(C)[C@@H]3[C@H](O)[C@H](OC(C)=O)[C@@]2(C)O1 [Forskolin],Glycerol % Differentiated,[1],151.62** % Differentiated
same,NEFA % Differentiated,[1],179.70** % Differentiated
O=C(Nc1ccccc1)c1cc([N+](=O)[O-])ccc1Cl [GW9662],Lipid accumulation % Differentiated,[2],30.59* % Differentiated
same,UCP1 expression (total cell normalization) % Differentiated,[3],83.38 % Differentiated
CC(C)NCC(O)c1ccc(O)c(O)c1 (stereo not drawn) [Isoproterenol],Glycerol % Differentiated,[1],213.97** % Differentiated
same,NEFA % Differentiated,[1],241.48** % Differentiated
"C=C(C)[C@H]1Cc2c(ccc3c2O[C@@H]2COc4cc(OC)c(OC)cc4[C@@H]2C3=O)O1 [Rotenone, rotenone]",ATP production % Differentiated,[4],27.95** % Differentiated
triton [Lysis control],Cytotoxicity % Base control (release of LDH),[5],"1,252.05** % Base control"
same,Mitochondrial Activity (viability) % Base control,[6],23.78** % Base control
